What was measured:
[1] = test system: HCV sub-genomic replicon in FCA 4 cells; assay type: cell-based, hepatitis C virus
Excerpt: FCA-4 sub genomic replicon was bicistronic construct composed of the HCV IRES (nucleotides 1 to 377 of the 5′NCR); the neomycin phosphotransferase (neo) gene; the encephalomyocarditis IRES, which mediates the translation of HCV nonstructural proteins NS3 through NS5; and the 3′NCR as shown in FIG. 2. […] FCA-4 sub-genomic replicon consists of single adaptive mutation and a deletion of a serine residue at position 1176 (Guo et al, 2001).
The bicistronic RNA molecule contains the HCV IRES and a few core-coding sequences, which are followed by neomycin phosphotransferase gene (Neor). These sequences are followed by the encephalomyocarditis virus IRES placed in front of HCV sequences encoding nonstructural protein NS3 to NS5B, terminating at the HCV 3NCR.
To determine the antiviral effect against HCV, FCA 4 cells were seeded in six well plates. After 24 h, media containing 20 μM of test compound was added to the plates. Cells were incubated at 37° C. in CO2 incubator for additional 48 h. At the end of the incubation, cells were harvested, RNA was extracted and cDNA were generated by oligo dT priming. cDNA was amplified by PCR using primers specific to the 5′UTR and NS5B gene of HCV. Amplification of GAPDH mRNA served as an internal control. […]

[2] = test system: HCV 3a genotype in MDBK cells; experiment: Synergy with interferon-α against HCV in MDBK cells (real time Quantitative RT-PCR); assay type: cell-based, hepatitis C virus; conditions: with interferon-α 5 IU/well, 6 hrs pre-incubation, HCV 3a 2×10^4 copies per well, 18 hrs
Experimental: Surprising synergism was recorded when Compound 1 was combined with Interferon alpha. […] MDBK cells were incubated for 6 hrs with compounds and interferon alone, or combination of compound and interferon in a 96-well plat. After 6 hrs cells were infected with 2×10^4 copies of HCV 3a genotype per well and incubated for additional 18 hrs. At the end of incubation period, total RNA was extracted by Gentra kit, and the levels of HCV RNA remaining were determined, by real time Quantitative RT-PCR assay and are shown as percentage of HCV RNA survival in cells. Results are represented as the average and standard error for three independent experiments.

[3] = test system: HCV; conditions: Ribavirin alone, cited from earlier work
[4] = biological target: HCV protease (Hepatitis C virus genotype 1a, UniProt P26664); conditions: SDS-PAGE and autoradiography assay; cited from earlier work
Chain of HCV protease (P26664 1027-1657): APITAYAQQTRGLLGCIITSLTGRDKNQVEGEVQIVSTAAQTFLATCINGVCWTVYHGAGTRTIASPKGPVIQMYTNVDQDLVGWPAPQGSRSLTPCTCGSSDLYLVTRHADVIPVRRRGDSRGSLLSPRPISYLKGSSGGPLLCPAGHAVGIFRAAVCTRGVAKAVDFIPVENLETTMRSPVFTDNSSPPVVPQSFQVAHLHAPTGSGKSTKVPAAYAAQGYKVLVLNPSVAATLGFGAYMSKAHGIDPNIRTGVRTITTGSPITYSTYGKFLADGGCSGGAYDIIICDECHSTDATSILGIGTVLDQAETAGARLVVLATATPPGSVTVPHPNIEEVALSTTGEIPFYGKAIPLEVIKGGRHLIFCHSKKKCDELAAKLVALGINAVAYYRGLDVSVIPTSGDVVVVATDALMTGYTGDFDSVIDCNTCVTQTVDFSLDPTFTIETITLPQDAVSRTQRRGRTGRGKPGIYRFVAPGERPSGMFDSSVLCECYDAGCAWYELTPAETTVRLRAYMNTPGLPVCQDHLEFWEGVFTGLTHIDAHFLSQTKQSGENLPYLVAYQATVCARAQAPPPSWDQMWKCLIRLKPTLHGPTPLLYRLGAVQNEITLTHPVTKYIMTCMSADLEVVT

**Q.** Which “Cytotoxicity in relation to antiviral suppression” value [1] does the source give for `Nn1c(-c2ccc([N+](=O)[O-])cc2)nc2ccccc2c1=O` [Compound 1, 3-amino-2-(4-nitrophenyl)-4-(3H)-quinazolinone] here?
**A.** independent of cytotoxicity

**Q.** And the “HCV RNA expression” value ([1]; 20 μM, 48 h, PCR with primers for 5′UTR and NS5B)?
**A.** inhibited HCV RNA expression significantly

**Q.** And the “Antiviral activity in combination with interferon-α (HCV RNA survival)” value [2]?
**A.** synergistic effect

**Q.** What does the source list for `NC(=O)c1ncn([C@@H]2O[C@H](CO)[C@@H](O)[C@H]2O)n1` [Ribavirin, 1-β-D-ribofuranosyl-1-1,2,4-triazole-3-carboxamide]?
**A.** Serum levels of HCV-RNA ([3]; patients): does not lower; Patients in whom serum amino transferase levels are reduced to normal [3]: 40%

**Q.** With `CCCC(=O)c1cc2c(c(O)c1C)C(=O)C(=O)c1c(O)cccc1-2` [Sch 68631] as the compound, how does the “Activity against HCV protease” value [4] read?
**A.** micromolar activity

Source: patent publication US8809354B2, “3-amino-2-(4-nitrophenyl)-4-(3H)-quinazolinone or derivatives thereof for treating or preventing antiviral infections” (priority 2011, dated 2014)
